Tests used:
[1] = molecular target: T1, recombinant human ACC2 (rhACC2) (Homo sapiens, UniProt O00763, V2141I); assay: recombinant hACC2 Transcreener assay (direct inhibition of ACC2 activity); assay type: biochemical; settings: Transcreener ADP detection FP assay, 50 μM ATP, 30 μM acetyl-CoA, 50 min at 25° C.
T1 construct: a full length Cytomax clone of ACC2 was purchased from Cambridge Bioscience Limited; made in house; host or cells: CHO cells (tetracycline-induced, pcDNA5 FRT TO-TOPO)
Description: For example direct inhibition of ACC activity, for the compound of Formula (1) was determined using preparations of recombinant human ACC1 (rhACC1) and recombinant human ACC2 (rhACC2). Representative sequences of the recombinant human ACC1 and ACC2 that can be used in the assay are provided in FIG. 1 (SEQ ID NO. 1) and FIG. 2 (SEQ. ID NO. 2), respectively.
[3] Preparation of rhACC2. Human ACC2 inhibition was measured using purified recombinant human ACC2 (hrACC2). Briefly, a full length Cytomax clone of ACC2 was purchased from Cambridge Bioscience Limited and was sequenced and subcloned into PcDNA5 FRT TO-TOPO (Invitrogen, Carlsbad, Calif.). The ACC2 was expressed in CHO cells by tetracycline induction and harvested in 5 liters of DMEM/F12 with glutamine, biotin, hygromycin and blasticidin with 1 μg/mL tetracycline (Invitrogen, Carlsbad, Calif.). The conditioned medium containing ACC2 was then applied to a Softlink Soft Release Avidin column (Promega, Madison, Wis.) and eluted with 5 mM biotin. 4 mgs of ACC2 were eluted at a concentration of 0.05 mg/mL (determined by A280) with an estimated purity of 95% ([…]). The purified ACC2 was dialyzed in 50 mM Tris, 200 mM NaCl, 4 mM DTT, 2 mM EDTA, and 5% glycerol. The pooled protein was frozen and stored at −80° C., with no loss of activity upon thawing. For measurement of ACC2 activity and assessment of ACC2 inhibition, test compounds were dissolved in DMSO and added to the rhACC2 enzyme as a 5× stock with a final DMSO concentration of 1%.
[4] Measurement of human ACC2 inhibition. hACC2 was assayed in a Costar #3676 (Costar, Cambridge, Mass.) 384-well plate using the Transcreener ADP detection FP assay kit (Bellbrook Labs, Madison, Wisconsin) using the manufacturer's recommended conditions for a 50 uM ATP reaction. The final conditions for the assay were 50 mM HEPES, pH 7.2, 5 mM MgCl2, 5 mM tripotassium citrate, 2 mM DTT, 0.1 mg/mL BSA, 30 μM acetyl-CoA, 50 μM ATP, and 8 mM KHCO3 Typically, a 10 μl reaction was run for 50 min at 25° C., and 10 μl of Transcreener stop and detect buffer was added and the combination incubated at room temp for an additional 1 hour. The data was acquired on an Envision Fluorescence reader (Perkinelmer) using a 620 excitation Cy5 FP general dual mirror, 620 excitation Cy5 FP filter, 688 emission (S) and a 688 (P) emission filter.

[2] = molecular target: T2, recombinant human ACC1 (rhACC1) (Homo sapiens, UniProt Q13085, DEL44-44); assay: recombinant hACC1 Transcreener assay (direct inhibition of ACC1 activity); assay type: biochemical; settings: Transcreener ADP detection FP assay, 50 μM ATP, 30 μM acetyl-CoA, 120 min at 25° C.
T2 construct: recombinant baculovirus containing full length human ACC1 cDNA; made in house; host or cells: SF9 insect cells (baculovirus)
Description: For example direct inhibition of ACC activity, for the compound of Formula (1) was determined using preparations of recombinant human ACC1 (rhACC1) and recombinant human ACC2 (rhACC2). Representative sequences of the recombinant human ACC1 and ACC2 that can be used in the assay are provided in FIG. 1 (SEQ ID NO. 1) and FIG. 2 (SEQ. ID NO. 2), respectively. Preparation of rhACC1. Two liters of SF9 cells, infected with recombinant baculovirus containing full length human ACC1 cDNA, were suspended in ice-cold lysis buffer (25 mM Tris, pH 7.5; 150 mM NaCl; 10% glycerol; 5 mM imidazole (EMD Bioscience; Gibbstown, N.J.); 2 mM TCEP (BioVectra; Charlottetown, Canada); Benzonase nuclease (10000 U/100 g cell paste; Novagen; Madison, Wis.); EDTA-free protease inhibitor cocktail (1 tab/50 mL; Roche Diagnostics; Mannheim, Germany). Cells were lysed by 3 cycles of freeze-thaw and centrifuged at 40,000×g for 40 minutes (4° C.). Supernatant was directly loaded onto a HisTrap FF crude column (GE Healthcare; Piscataway, N.J.) and eluted with an imidazole gradient up to 0.5 M over 20 column volumes (CV). ACC1-containing fractions were pooled and diluted 1:5 with 25 mM Tris, pH 7.5, 2 mM TCEP, 10% glycerol and direct loaded onto a CaptoQ (GE Healthcare) column and eluted with an NaCl gradient up to 1 M over 20 CV's. Phosphate groups were removed from purified ACC1 by incubation with lambda phosphatase (100 U/10 μM target protein; New England Biolabs; Beverly, Mass.) for 14 hours at 4° C.; okadaic acid was added (1 μM final concentration; Roche Diagnostics) to inhibit the phosphatase. Purified ACC1 was exchanged into 25 mM Tris, pH 7.5, 2 mM TCEP, 10% glycerol, 0.5 M NaCl by 6 hour dialysis at 4° C. Aliquots were prepared and frozen at −80° C. […] The final conditions for the assay were 50 mM HEPES, pH 7.2, 10 mM MgCl2, 7.5 mM tripotassium citrate, 2 mM DTT, 0.1 mg/mL BSA, 30 μM acetyl-CoA, 50 μM ATP, and 10 mM KHCO3 Typically, a 10 μl reaction was run for 120 min at 25° C., and 10 μl of Transcreener stop and detect buffer was added and the combination incubated at room temp for an additional 1 hour. The data was acquired on a Envision Fluorescence reader (Perkinelmer) using a 620 excitation Cy5 FP general dual mirror, 620 excitation Cy5 FP filter, 688 emission (S) and a 688 (P) emission filter.

SMILES	IC50 [1] [nM]	IC50 [2] [nM]
CC(C)n1ncc2c1C(=O)CC1(CCN(C(=O)c3cc(F)c4[nH]ncc4c3)CC1)C2 [Example 2A-37]	34.5	87.4
CC(C)(C)n1ncc2c1C(=O)CC1(CCN(C(=O)c3ccc4c(c3)NC(=O)CC4)CC1)C2 [Example 2A-34]	32.1	72.4
CC(C)n1ncc2c1C(=O)CC1(CCN(C(=O)c3cc(Cl)c4nc[nH]c4c3)CC1)C2 [Example 2A-47]	15.9	48.2
CC(C)n1ncc2c1C(=O)CC1(CCN(C(=O)c3cnc4ccnn4c3N)CC1)C2 [Example 2A-40]	116	262
CC(C)n1ncc2c1C(=O)CC1(CCN(C(=O)c3ccc4cnn(C)c4c3)CC1)C2 [Example 2A-10]	29.2	188
CC(C)n1ncc2c1C(=O)CC1(CCN(C(=O)c3ccc4c(c3)[nH]c(=O)n4C)CC1)C2 [Example 2A-46]	29.5	167
CC(C)(C)n1ncc2c1C(=O)CC1(CCN(C(=O)c3cc(Cl)c4[nH]c(=O)[nH]c4c3)CC1)C2 [Example 2A-56]	15.1	31.2
Cc1ncc(C(=O)N2CCC3(CC2)CC(=O)c2c(cnn2C(C)C)C3)c(N)n1 [Example 2A-15]	775	2030
CC(C)(C)n1ncc2c1C(=O)CC1(CCN(C(=O)c3ccc4cc[nH]c(=O)c4c3)CC1)C2 [Example 2A-31]	28.8	43.5
Cc1cc(C(=O)N2CCC3(CC2)CC(=O)c2c(cnn2C2CCOC2)C3)ccc1Cl (stereo not drawn) [Example 1A-5]	127	800
CC(C)n1ncc2c1C(=O)CC1(CCN(C(=O)c3cc(Cl)c4[nH]ncc4c3)CC1)C2 [Example 2A-16]	13.6	46.9
CC(C)n1ncc2c1C(=O)CC1(CCN(C(=O)c3ccc4cnccc4n3)CC1)C2 [Example 2A-63]	3200	9330
Cn1ncc2c(N)c(C(=O)N3CCC4(CC3)CC(=O)c3c(cnn3C(C)(C)C)C4)cnc21 [Example 2A-59]	69.2	115
Cc1nc2c(Cl)cc(C(=O)N3CCC4(CC3)CC(=O)c3c(cnn3C(C)(C)C)C4)cc2[nH]1 [Example 2A-53]	17.2	39.6
CC(C)n1ncc2c1C(=O)CC1(CCN(C(=O)c3nn(-c4ccccc4)nc3N)CC1)C2 [Example 11A-6]	459	989
COCCn1ncc2c1C(=O)CC1(CCN(C(=O)c3ccc(Cl)c(C)c3)CC1)C2 [Example 2A-8]	4890	16000
CC(C)(C)n1ncc2c1C(=O)CC1(CCN(C(=O)c3ccc4c(=O)[nH]ccc4c3)CC1)C2 [Example 2A-22]	334	1890
CC(C)(C)n1ncc2c1C(=O)CC1(CCN(C(=O)c3cnc4ccnn4c3N)CC1)C2 [Example 2A-43]	149	304
CC(C)n1ncc2c1C(=O)CC1(CCN(C(=O)c3cc4ccncc4[nH]3)CC1)C2 [Example 2A-64]	253	229
CC(C)n1ncc2c1C(=O)CC1(CCN(C(=O)c3cc(Cl)c4cn[nH]c4c3)CC1)C2 [Example 2A-65]	51.5	74.9
CC(C)(C)n1ncc2c1C(=O)CC1(CCN(C(=O)c3nc4ccccc4nc3N)CC1)C2 [Example 2A-39]	122	527
Cc1cc(C(=O)N2CCC3(CC2)CC(=O)c2c(cnn2CC(C)C)C3)ccc1Cl [Example 2A-5]	481	1220
CC(C)n1ncc2c1C(=O)C(C)C1(CCN(C(=O)c3ccc4[nH]ncc4c3)CC1)C2 (racemic) [Example 4A-1, 1′-(1H-indazole-5-carbonyl)-1-isopropyl-6-methyl-4,6-dihydrospiro[indazole-5,4′-piperidin]-7(1H)-one]	125	399
CCn1ncc2c1C(=O)CC1(CCN(C(=O)c3ccc(Cl)c(C)c3)CC1)C2 [Example 2A-7]	965	4340

Further lines, results first:

IC50 [1] [nM]	IC50 [2] [nM]	SMILES
171	404	CC(C)n1ncc2c1C(=O)CC1(CCN(C(=O)c3ccn4cncc4c3)CC1)C2 [Example 11A-60]
97.1	391	CNc1nc(C)ccc1C(=O)N1CCC2(CC1)CC(=O)c1c(cnn1C(C)C)C2 [Example 11A-46]
108	110	CC(C)(C)n1ncc2c1C(=O)CC1(CCN(C(=O)c3cc4cnccc4[nH]3)CC1)C2 [Example 11A-51]
253	418	Cc1cccn2cc(C(=O)N3CCC4(CC3)CC(=O)c3c(cnn3C(C)C)C4)nc12 [Example 11A-14]
56.3	235	CC(C)n1ncc2c1C(=O)CC1(CCN(C(=O)c3ccnc(-c4cc[nH]n4)c3)CC1)C2 [Example 11A-18]
190	621	Cc1cccn2cc(C(=O)N3CCC4(CC3)CC(=O)c3c(cnn3C(C)(C)C)C4)nc12 [Example 11A-16]
112	338	CC(C)n1ncc2c1C(=O)CC1(CCN(C(=O)c3cc(-c4cccnc4)[nH]n3)CC1)C2 [Example 11A-62]
30.1	122	CC(C)n1ncc2c1C(=O)CC1(CCN(C(=O)c3cccc(-c4ncc[nH]4)c3)CC1)C2 [Example 11A-41]
745	331	Cc1nn(C)c(C(=O)N2CCC3(CC2)CC(=O)c2c(cnn2C(C)(C)C)C3)c1O [Example 11A-25]
295	1500	CC(C)n1ncc2c1C(=O)CC1(CCN(C(=O)c3ccc(-n4cncn4)cc3)CC1)C2 [Example 11A-54]
1040	1860	Cn1ncc2c(=O)c(C(=O)N3CCC4(CC3)CC(=O)c3c(cnn3C(C)(C)C)C4)c[nH]c21 [Example 11A-70]
4600	4170	Cc1ccc(O)c(C(=O)N2CCC3(CC2)CC(=O)c2c(cnn2C(C)(C)C)C3)n1 [Example 11A-44]
